The values that follow are results of earlier work, collected in patent publication US10597401B2, “Methods and intermediates for the preparation of omacetaxine and cephalotaxine derivatives thereof” (ALBANY MOLECULAR RESEARCH, INC., priority 2015, dated 2020).

The conditions of the data set: background statement, no test described.

For `COC1=C[C@]23CCCN2CCc2cc4c(cc2[C@@H]3[C@@H]1O)OCO4` [cephalotaxine], the biological activity result was “biologically inactive”.
